Experimental data from patent US20220315574A1, “Beta-Arrestin-Modulating Compounds and Methods of Using Same” (Duke University, priority 2019, published 2022).
Structures can show the parent of a compound that is named as a salt. Blank lines part the entries; values can stand above or below the molecule they belong to.

Legend:
[1] = test system: ERK1/2; experiment: Live cell ERK1/2 activation assay (HEK293 cells stably expressing β2AR); type: cell-based; details: for βarr1/2-dependent ERK activation through β2-adrenergic receptor: carvedilol stimulation after compound pretreatment
Protocol: To assess the effect(s) of βarr small-molecule modulators on receptor-stimulated β-arr dependent ERK1/2 activation, HEK293 cells stably expressing β2AR plates were starved for 6 hours in serum-free medium prior to stimulation (Wisler, J. W. et al. A unique mechanism of beta-blocker action: carvedilol stimulates beta-arrestin signaling. Proc Natl Acad Sci USA 104, 16657-16662, doi:10.1073/pnas.0707936104 (2007); Wang, J. et al. Galphai is required for carvedilol-induced beta1 adrenergic receptor beta-arrestin biased signaling. Nat Commun 8, 1706, doi:10.1038/s41467-017-01855-z (2017)). Cells were pretreated with βarr small-molecule modulators or vehicle, then incubated for 30 min at 37° C. After stimulation with appropriate receptor ligand (carvedilol or isoproterenol) for indicated time points, reactions were terminated by the addition of Laemmli sample buffer. The cell lysates were sonicated for 15 sec (2×) and clarified by centrifugation 14,000×g (4° C., 15 min). Proteins were resolved on an SDS-PAGE gel, transferred to nitrocellulose membranes, and immunoblotted using rabbit polyclonal anti-phospho-p44/42 MAPK (ERK1/2) antibody (1:2000; Cell Signaling), anti-MAPK1/2 (ERK1/2) antibody (1:10,000; Millipore-Sigma), anti-β-arrestin1 antibody (A1CT; 1:3000) or anti-β-arrestin2 antibody (A1CT; 1:3000, Lefkowitz lab, Duke University). Protein bands on the membrane were detected with SuperSignal West Pico enhanced chemiluminescent substrate (Thermo Fisher) and captured using a ChemiDoc-XRS charge-coupled device camera system (Bio-Rad Laboratories). Bands were quantified by densitometry using Image Lab (Bio-Rad, Hercules, Calif.) and GraphPad Prism software was used for data analyses.
For experiments involving siRNA transfection and knockdown βarrs, after stimulation cells were lysed in ice-cold 1% NP-40 lysis buffer [20 mM tris-HCl (pH 7.4), 137 mM NaCl, 20% glycerol, 1% NP-40, 2 mM sodium orthovanadate, 1 mM phenylmethylsulfonyl fluoride, 10 mM sodium fluoride, aprotinin (10 μg/ml), leupeptin (5 μg/ml), and phosphatase inhibitors (Phos-STOP; Roche)], rotated for 45 min, and cleared of insoluble debris by centrifugation at 14,000×g (4° C., 15 min). After which the supernatant was collected, protein concentration determined, and equal amounts of cell lysate were mixed with 2×Laemmli sample buffer. Samples were analyzed afterwards essentially as described above.

[2] = test system: β2V2R-βarr internalization; experiment: DiscoveRx PathHunter activated receptor endocytosis assay in U2OS cells; type: cell-based; details: series of compound concentrations, 30 min pretreatment, isoproterenol dose-response
Protocol: β-arrestin-mediated activated receptor internalization was measure using the DiscoveRx PathHunter activated receptor endocytosis assay according to the manufacturer's protocols (DiscoverRx, Fremont, Calif.). Briefly, an Enzyme Acceptor (EA)-tagged βarr and a ProLink tag localized to endosomes are stably expressed in U2OS cells. Untagged β2V2R is transiently expressed (4 ug of DNA). The next day, cells (25,000 cells per well) were then seeded in white 96-well clear-bottomed assay plates and incubated for 24 h before experiments. On the day of experiment, cells were first treated with compound or vehicle for 30 min, followed by a series concentrations of agonist (Iso) stimulation for 60 min at 37° C. Receptor internalization was detected as luminescence resulting from the complementation of β-galactosidase fragments (Enzyme Acceptor and ProLink) within endosomes. Luminescence signals were measured on a CLARIOstar microplate reader using the PathHunter Detection kit (DiscoveRx).

[3] = target: βarr2 (Rattus norvegicus, UniProt P29067); experiment: Binding affinity (Kd) by ITC / thermal shift; parameters: made in house; details: Cmpd-30 by ITC; other three by combination of ITC and thermal shift; read-out: Kd (dissociation constant), βarr2
Protocol: A high-throughput differential scanning fluorimetry-based thermal shift screen was developed to identify potential βarr small-molecule modulators present in the collection of structurally diverse, drug-like small-molecule compound library described above. The screen was performed using the StepOnePlus™ Real-Time PCR System (Applied Biosystems, Foster City, Calif.). Melting temperature changes were monitored with the use of a reporter fluorescent probe, SYPRO Orange (Thermo Fisher Scientific). Proteins were buffered in a 20 mM HEPES pH 7.5, 100 mM NaCl solution. All reactions were set up in a 96-well plate at final volumes of 20 μl. Small-molecule test compounds were plated from DMSO stock solutions into 96 well plates (1 compound/well) at a final compound concentration of 100 μM. The final DMSO concentration per well was 1%. βarr1 or βarr2 final concentration was maintained at 5 μM per well. Vehicle (DMSO), negative, and positive controls were also included in each plate. Negative controls contained SYPRO Orange in buffer by itself (no βarr protein). Three known βarr binders were individually tested under described assay conditions: ‘V2Rpp’, a phosphorylated peptide corresponding to the C-terminus of the vasopressin-2 receptor (V2R); Fab30, an antigen-binding fragment that recognizes V2Rpp bound active βarr conformation; and inositol hexakisphosphate (IP6). […]. […] The temperature was raised with a step of 0.5° C. per 30 second from 25° C. to 99° C. and fluorescence readings were taken at each interval. Melting curves were directly exported from the instrument and were analyzed using Applied Biosystems® Protein Thermal Shift™ Software. Melting temperature (Tm) was calculated by plotting the first derivative of the fluorescence emission as a function of temperature [−dF/dT]. […]
ITC measurements were made using the MicroCal iTC200 system (MicroCal, Malvern, Pa.). […] Data were analyzed using MicroCal Origin software program to obtain association constant (Ka=1/Kd), stoichiometry (N), and thermodynamic parameters such as enthalpy (ΔH) and entropy (ΔS) of binding.

Chain of βarr2 (P29067 whole entry): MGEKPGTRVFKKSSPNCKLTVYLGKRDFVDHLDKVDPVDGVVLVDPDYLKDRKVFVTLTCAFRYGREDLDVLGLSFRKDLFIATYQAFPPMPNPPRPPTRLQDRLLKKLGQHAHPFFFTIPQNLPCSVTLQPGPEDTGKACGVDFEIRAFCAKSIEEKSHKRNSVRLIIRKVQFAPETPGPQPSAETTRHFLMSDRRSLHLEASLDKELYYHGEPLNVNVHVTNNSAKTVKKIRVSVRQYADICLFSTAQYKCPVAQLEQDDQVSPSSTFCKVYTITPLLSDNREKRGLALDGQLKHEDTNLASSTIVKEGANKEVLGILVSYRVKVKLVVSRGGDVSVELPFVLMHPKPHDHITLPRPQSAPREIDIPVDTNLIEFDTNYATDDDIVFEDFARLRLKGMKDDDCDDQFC

SMILES: C=C1C(=O)C23[C@H](O)C1CC[C@H]2[C@]12COC3(O)[C@@H](O)[C@@H]1C(C)(C)CC[C@@H]2O [Cmpd-5, (1R,2S,10S,11R,15S,18R)-9,10,15,18-tetrahydroxy-12,12-dimethyl-6-methylidene-17-oxapentacyclo[7.6.2.15,8.01,11.02,8]octadecan-7-one]
βarr1/2-dependent ERK activation through β2-adrenergic receptor [1]: attenuate
maximal agonist induced receptor-βarr internalization response [2]: significantly diminished
Kd [3]: 261 nM

EC50 ([1]; Homo sapiens, HEK293, βarr-dependent but receptor-independent): 500 nM
Kd [3]: 2 nM
SMILES: CN(C)c1n/c(=N/Cc2ccco2)ss1 [Cmpd-30, 5-(furan-2-ylmethylimino)-N,N-dimethyl-1,2,4-dithiazol-3-amine;hydrobromide]
basal phosphorylation of ERK1/2 ([1]; compound alone, absent of agonist): increased
time of peak ERK activation signal ([1]; compound alone, decline observed at 30 minutes): 15 to 20 min
compound-induced ERK1/2 phosphorylation after knockdown of βarr1/2 ([1]; βarr1/2 siRNA vs control siRNA): markedly impaired
maximal agonist induced receptor-βarr internalization response [2]: significantly diminished

SMILES: C=C1C(=O)OC2CC3(C)OC3CC/C(C)=C\C(OC(C)=O)C12 (stereo not drawn) [Cmpd-64, [(8Z)-3,8-dimethyl-12-methylidene-13-oxo-4,14-dioxatricyclo[9.3.0.03,5]tetradec-8-en-10-yl] acetate]
βarr1/2-dependent ERK activation through β2-adrenergic receptor [1]: attenuate
maximal agonist induced receptor-βarr internalization response [2]: significantly diminished
Kd [3]: 104 nM
